“And” between values parts separate entries of the source, which are not always exact repeats. Equal entries are not always repeated.

The inhibition is the percentage by which the read-out fell short of the control. The term Kd denotes the constant that tells how readily two partners part at equilibrium.

For test [1], the target named is T1, SAP (Homo sapiens, UniProt P02743). Briefly: Inhibition of binding of 125I radiolabelled SAP to native long chromatin immobilized in microtitre plates. The arrangement: 5 μl of radiolabelled SAP in TN; from tissue. To be noted: read-out: Percent inhibition of binding of radiolabelled SAP to immobilized native long chromatin.
Test [2] concerns the target T1, SAP. The test is described as follows: Isothermal calorimetry: dissociation constants between SAP and compounds. It is filed as binding. The conditions noted are these: replicate measurements, read-out: Kd in micromoles per liter (replicate measurements). From the text: Surface plasmon resonance (SPR) is a low throughput but powerfully informative method to identify compounds that are bound by, or themselves bind to SAP, either in a calcium dependent fashion or independently of calcium, for the purposes of the present invention. For example, low molecular weight compounds that inhibit binding of SAP to its macromolecular ligands, including target ligands relevant to the present invention, can be detected by their effect on the signal generated by fluid phase SAP binding to ligand immobilised on the solid phase (Example A). Furthermore, when SAP itself is immobilised on the solid phase in an SPR instrument, the interaction with it of test molecules provided in the fluid phase generates a signal that can be detected and quantified. Purified SAP immobilized within an SPR instrument gives a quantifiable signal when it is exposed to another molecule that forms a complex with the SAP, and this is distinct from the absence of such a signal if no complex is formed. […] Another low throughput but powerful direct method is isothermal calorimetry that measures the heat of interaction in solution between SAP and test compounds according to the present invention. The binding affinity can be measured precisely as a guide to potential efficacy. Typical results by this method for the dissociation constants, Kd, between SAP and various compounds are as follows: […]
On the technique in general: Isothermal titration calorimetry measures the heat released or taken up as one component is titrated into another.

The target of test [3] is T1, SAP. Briefly: Treatment of patients with osteoarthritis: plasma SAP concentration and joint symptoms. The arrangement: 5 μl of radiolabelled SAP in TN; from tissue. To be noted: patient. It counts as in vivo. From the text:
1) The patient, a person retired General Practitioner living in New Zealand, has a long history of bone and joint injuries, starting as a child on a farm and continuing as a teenager and then adult playing rugby and skiing. They have suffered from pain and swelling of previously damaged joints following manual work and especially in cold weather. The proximal interphalangeal joints of the left middle and right fourth fingers, the right elbow and the mid-thoracic intervertebral joints have been most affected. Symptoms and signs have progressively worsened over the past 22 years, so that their capacity for physical work had become very restricted and during winter they have required frequent or continuous treatment with non-steroidal anti-inflammatory drugs. These are all typical manifestations of osteoarthritis. In 2000 the discovery of impaired renal function led eventually to a second, and completely separate diagnosis of hereditary systemic amyloidosis caused by a mutation in the gene for fibrinogen A α-chain.
They started experimental treatment for their amyloidosis on 9 Oct. 2001 with (R)-1-[6-[(R)-2-Carboxy-pyrrolidin-1-yl]-6-oxo-hexanoyl]pyrrolidine-2-carboxylic acid, 10 mg b.d. by subcutaneous injection. […] This improvement was sustained and increased so that by April 2002, the autumn in New Zealand, it was impressively beyond doubt. Throughout that winter, for the first time in many years, […] no longer required treatment with non-steroidal anti-inflammatory drugs, despite increased physical activity. […] Over the past few months they have been doing regular hard physical work on the land, fencing and landscaping, including lifting and carrying significant weights, without suffering any of the pain and swelling that previously severely affected them even without the stress of unusual physical activity.
Their shoulders were painful, particularly when reaching up or behind their head, making drying their hair and some household tasks painful and difficult. […] They also experienced pain in their right wrist when performing some tasks, particularly opening jars, a manoeuvre that they found difficult. These symptoms are all compatible with osteoarthritis.
CD has hereditary systemic amyloidosis caused by a mutation in the gene for apolipoprotein AI, diagnosed in October 2001 during investigation of chronic renal impairment. […] They started experimental treatment for their amyloidosis on 22 Oct. 2001 with (R)-1-[6-[(R)-2-Carboxy-pyrrolidin-1-yl]-6-oxo-hexanoyl]pyrrolidine-2-carboxylic acid, 15 mg b.d. by subcutaneous injection. […] Treatment with (R)-1-[6-[(R)-2-Carboxy-pyrrolidin-1-yl]-6-oxo-hexanoyl]pyrrolidine-2-carboxylic acid finished in October 2002 and their remarkable remission has continued to the present (June 2003).

Test [4] addresses T1, SAP. The test is described as follows: Inhibition of binding of 125I radiolabelled SAP to influenza virus immobilized in microtitre plates. The arrangement: 5 μl of radiolabelled SAP in TN; from tissue. The conditions noted are these: read-out: Percent inhibition of binding of radiolabelled SAP to immobilized influenza virus.

T1 sequence (P02743 20-223): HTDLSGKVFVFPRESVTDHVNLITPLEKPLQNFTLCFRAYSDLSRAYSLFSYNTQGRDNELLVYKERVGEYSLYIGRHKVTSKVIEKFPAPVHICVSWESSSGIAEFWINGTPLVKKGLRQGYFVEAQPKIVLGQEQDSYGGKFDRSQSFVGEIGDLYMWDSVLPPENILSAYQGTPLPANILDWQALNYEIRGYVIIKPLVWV

Take `O=C(O)[C@H]1CCCN1C(=O)CCCCC(=O)N1CCC[C@@H]1C(=O)O` [Ro-63-8695, (R)-1-[6-[(R)-2-Carboxy-pyrrolidin-1-yl]-6-oxo-hexanoyl]pyrrolidine-2-carboxylic acid]: the inhibition at 0.2 µM at SAP [1] (compound 200 nM) was 1%; on SAP [4] (compound 200 nM), 36%. Also, the results for the inhibition at 2 µM on SAP [1] (compound 2 μM) and on SAP [4] (compound 2 μM) were 29% and 81%, respectively. Moreover, the inhibition at 20 µM on SAP [1] (compound 20 μM) was 69%; on SAP [4] (compound 20 μM) it was 90%. Besides, the inhibition at 200 µM at SAP [1] (compound 200 μM) was determined as 87%; at SAP [4] (compound 200 μM) it was 96%. In addition, the inhibition at 2000 µM was 93% at SAP [1] (compound 2 mM) and 98% at SAP [4] (compound 2 mM). Also, the Kd on SAP [2] was 13.9 nM and 5.9 nM and 6.5 nM and 8.8 nM. Besides, the “plasma SAP concentration reduced by” value on SAP [3] (10 mg b.d. subcutaneous injection, after three months) is given as “over 95%”; on SAP [3] (15 mg b.d. subcutaneous injection, after two months), “over 95%”. Besides, the symptoms of osteoarthritis result at SAP [3] (10 mg b.d. subcutaneous injection, treatment Oct. 2001 to June 2003) is reported as “remained in remission”. For the same compound, the “joint pain and function” value on SAP [3] (15 mg b.d. subcutaneous injection, by January 2002 (start 22 Oct. 2001)) is “free of pain and had normal function of their joints”.

Source of the values: patent US7659299B2, “Compounds inhibiting the binding of sap for treating osteoarthritis” (Pentraxin Therapeutics Limited, priority 2003, dated 2010).
